From patent US11319336B2, “Ship inhibitors and uses thereof” (The Research Foundation For The State University Of New York, priority 2010, dated 2022)
“Also recorded” adds a separate entry of the source.

Experiments:
[1] = target: T1, recombinant SHIP1 (Homo sapiens, UniProt Q92835); assay: Malachite Green phosphatase assay for SHIP1 activity against PI(3,4,5)P3 substrate; assay type: biochemical
T1 sequence (Q92835 1-1189): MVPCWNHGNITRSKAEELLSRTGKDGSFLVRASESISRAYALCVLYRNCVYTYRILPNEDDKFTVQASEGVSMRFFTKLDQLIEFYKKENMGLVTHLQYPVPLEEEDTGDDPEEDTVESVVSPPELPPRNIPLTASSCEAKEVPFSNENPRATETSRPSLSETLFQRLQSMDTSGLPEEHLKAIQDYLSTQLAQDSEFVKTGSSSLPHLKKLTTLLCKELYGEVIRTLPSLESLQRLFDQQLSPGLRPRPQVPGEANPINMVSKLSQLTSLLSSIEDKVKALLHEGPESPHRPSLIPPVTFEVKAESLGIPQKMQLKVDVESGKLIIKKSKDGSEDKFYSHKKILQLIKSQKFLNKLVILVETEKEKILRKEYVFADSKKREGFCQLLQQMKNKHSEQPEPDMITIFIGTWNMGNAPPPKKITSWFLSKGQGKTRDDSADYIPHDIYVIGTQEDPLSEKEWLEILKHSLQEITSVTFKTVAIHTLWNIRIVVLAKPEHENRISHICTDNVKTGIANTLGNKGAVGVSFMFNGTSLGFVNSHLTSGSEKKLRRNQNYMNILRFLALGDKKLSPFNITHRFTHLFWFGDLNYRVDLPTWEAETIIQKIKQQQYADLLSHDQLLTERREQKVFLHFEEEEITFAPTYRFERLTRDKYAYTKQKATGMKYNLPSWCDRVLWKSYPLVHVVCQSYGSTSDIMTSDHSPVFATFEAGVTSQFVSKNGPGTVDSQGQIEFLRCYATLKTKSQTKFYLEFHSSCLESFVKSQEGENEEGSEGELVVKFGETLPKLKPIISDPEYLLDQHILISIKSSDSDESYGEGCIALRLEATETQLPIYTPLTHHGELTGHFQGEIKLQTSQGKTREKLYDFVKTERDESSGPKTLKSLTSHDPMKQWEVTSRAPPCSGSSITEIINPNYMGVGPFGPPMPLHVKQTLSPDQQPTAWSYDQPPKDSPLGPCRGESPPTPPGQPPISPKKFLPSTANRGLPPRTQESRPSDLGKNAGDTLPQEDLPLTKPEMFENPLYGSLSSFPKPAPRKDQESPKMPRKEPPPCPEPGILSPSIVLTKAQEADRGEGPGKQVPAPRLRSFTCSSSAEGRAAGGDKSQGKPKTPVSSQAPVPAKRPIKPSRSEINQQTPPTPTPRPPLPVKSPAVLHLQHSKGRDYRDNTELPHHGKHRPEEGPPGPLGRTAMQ
Experimental: Absorbance is recorded at 620 nm, smaller numbers indicate a lack of green color and inhibition of the phosphatase.
(§1) [Noto bene: DRV-IV-26=3A5AS]

[2] = test system: MIR cell numbers; assay: MIR cell induction in treated mice; assay type: in vivo; conditions: FIG. 6C, D
Experimental: as §1
The solubility of 3AC was assessed by calculating the distribution coefficient (CLogD). This calculation estimates the CLogD for 3AC at 7.17 indicating the molecule is very lipophilic. Thus, we have begun to develop novel 3AC analogs with increased aqueous solubility. One of these compounds, 3A5AS, has a CLogD of 3.33. Lipinski's rules (a common measure of small molecule pharmacokinetics) recommend a ClogD of <5 for in vivo applications.

Compound | Inhibition of recombinant SHIP1 activity in vitro, compared with 3AC ([1]; Malachite Green assay, PI(3,4,5)P3 substrate, FIG. 5B / FIG. 6A) | Concentration inducing a comparable MIR cell increase in vivo [2] [µM] | Potency at inducing MIR cell numbers in vivo, compared with 3AC [2] | SHIP1 inhibition by lack of green color ([1]; SHIP1 malachite phosphatase assay, FIG. 1, visual readout)
C[C@@]12CCC[C@H]1[C@@H]1CC[C@H]3C[C@H](N)CC[C@]3(C)[C@H]1CC2 [Example 3A5AS, 3α-amino-5α-androstane] | equal inhibitory activity; also recorded: equally potent | 15 | more potent | 
CC(C)CCC[C@@H](C)[C@H]1CC[C@H]2[C@@H]3CCC4C[C@H](N)CC[C@]4(C)[C@H]3CC[C@]12C (some centres unmarked) [Example 3AC, reference compound] |  | 60 |  | 
CCN [ethylamine] |  |  |  | poor inhibitor
